Among the data in patent US11253521B2, “3-hydroxy-quinazoline-2,4-dione derivatives and their use as nuclease modulators” (Ludwig Institute for Cancer Research Ltd, priority 2015, dated 2022) are IC50 values, retold here.

recombinant full-length FEN-1, sequence (P39748 whole entry, the tested form may be a part): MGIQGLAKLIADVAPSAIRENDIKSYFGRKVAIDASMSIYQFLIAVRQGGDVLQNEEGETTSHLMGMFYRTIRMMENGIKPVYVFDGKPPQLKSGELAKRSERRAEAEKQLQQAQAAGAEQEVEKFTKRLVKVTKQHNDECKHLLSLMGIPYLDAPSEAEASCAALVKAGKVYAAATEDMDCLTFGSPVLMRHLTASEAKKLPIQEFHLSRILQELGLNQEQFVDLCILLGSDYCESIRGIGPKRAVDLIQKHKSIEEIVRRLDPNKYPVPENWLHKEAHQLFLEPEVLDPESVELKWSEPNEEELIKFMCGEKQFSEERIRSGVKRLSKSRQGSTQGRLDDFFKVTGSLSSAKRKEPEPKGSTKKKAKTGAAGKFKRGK

This assay addresses recombinant full-length FEN-1 (Homo sapiens (Human), UniProt P39748). Briefly: Fluorogenic biochemical (enzymatic) assay, FEN-1. Conditions: 200 nM DNA flap substrate, 50 mM Tris pH 8.0, 10 mM MgCl2, 2-4 hours at 25° C. or 37° C., read-out: SMD FEN-1 IC50. The procedure: Fluorogenic biochemical assays used recombinant full-length FEN-1 or catalytic domains of Exo1, XPG or GEN1 and 200 nM of a DNA substrate (formed by annealing three oligonucleotides—quencher (5′-CACGTTGACTACCGCTCAATCCTGACGAACACATC-BHQ2), flap (5′-TAMRA-GA TGTCAAGCAGTCCTAACTTTGAGGCAGAGTCCGC) and template (5′-GC GGACTCTGCCTCAAGACGGTAGTCAACGTG-3′) (PMID: 21062821)) in 50 mM Tris pH 8.0, 10 mM MgCl2, 1 mM DTT, and 0.01% Tween-20. Inhibitors arrayed in dose response were added from DMSO stocks (using a V&P 384-pintool head) to the enzyme solution in low volume, black polystyrene 384-well plates (Corning #3677) 15 minutes prior to the addition of the DNA substrate. Reactions were allowed to proceed for 2-4 hours at 25° C. or 37° C. Fluorescence data (Excitation: 530 nm/10 nm bandwidth; Emission: 590 nm/20 nm bandwith) were measured with an Infinite M1000 plate reader (Tecan).
For `O=c1[nH]c2cccc(Cl)c2c(=O)n1O` [Compound 11], the half-inhibitory concentration (IC50) – broadly, the midpoint of a concentration-inhibition curve – is 20.8 nM.
Take `O=c1[nH]c2ccccc2c(=O)n1O` [Compound 12]: the IC50 came out at 241 nM.
Turning to `O=c1[nH]c2ccncc2c(=O)n1O` [Compound 13], the IC50 was found to be 1310 nM.
On to `O=c1[nH]c2ncccc2c(=O)n1O` [Compound 14], for which the 50% inhibitory concentration (IC50) turned out to be 106 nM.
`O=c1[nH]c2cc(-c3ccccc3)ccc2c(=O)n1O` [Compound 15]: the IC50 worked out at 356 nM.
Regarding `O=c1[nH]c2nc(-c3ccccc3)ccc2c(=O)n1O` [Compound 16], the half-inhibitory concentration (IC50) was found to be 392 nM.
As for `Cn1c(=O)n(O)c(=O)c2cccnc21` [Compound 17], the IC50 worked out at 3340 nM.
For `O=c1[nH]c2c(-c3ccccc3)cccc2c(=O)n1O` [Compound 18] the value was 113 nM; for `O=c1[nH]c2nc(S(=O)(=O)c3ccccc3)ccc2c(=O)n1O` [Compound 19], 134 nM.
For `O=c1c2cccnc2n(-c2ccccc2)c(=O)n1O` [Compound 20], the IC50 amounted to 2830 nM.
For `O=c1[nH]c2c(S(=O)(=O)c3ccccc3)cccc2c(=O)n1O` [Compound 21] the value was 23.8 nM; for `O=c1[nH]c2cc(S(=O)(=O)c3ccccc3)ccc2c(=O)n1O` [Compound 22], 79.5 nM; for `O=c1[nH]c2nc(Cc3ccccc3)ccc2c(=O)n1O` [Compound 23], 11 nM.
For `O=c1[nH]c2c(Cc3ccccc3)cccc2c(=O)n1O` [Compound 24] the value was 53.8 nM; for `O=c1[nH]c2cc(S(=O)(=O)Cc3ccccc3)cnc2c(=O)n1O` [Compound 25], 1640 nM.
In the case of `O=c1[nH]c2c(-c3ccccc3)ccc(Cl)c2c(=O)n1O` [Compound 26], the 50% inhibitory concentration (IC50) was 37.3 nM.
For `O=c1[nH]c2cc(Cc3ccccc3)ccc2c(=O)n1O` [Compound 27] the value was 97.3 nM; for `O=c1[nH]c2c(Cc3ccccc3)ccc(Cl)c2c(=O)n1O` [Compound 28], 77.2 nM; for `O=c1[nH]c2cc(S(=O)(=O)Cc3ccccc3)ccc2c(=O)n1O` [Compound 29], 160 nM.
For `O=c1[nH]c2c(S(=O)(=O)Cc3ccccc3)cccc2c(=O)n1O` [Compound 30] the value was 129 nM; for `Cc1ccc(S(=O)(=O)c2cccc3c(=O)n(O)c(=O)[nH]c23)cc1` [Compound 31], 24.2 nM.
For `Cc1cccc(S(=O)(=O)c2cccc3c(=O)n(O)c(=O)[nH]c23)c1` [Compound 32] the value was 14.5 nM.
Turning to `O=c1[nH]c2c(S(=O)(=O)c3ccc(Cl)cc3)cccc2c(=O)n1O` [Compound 33], the IC50 came out at 26.1 nM.
For `O=c1[nH]c2c(S(=O)(=O)c3cccc(Cl)c3)cccc2c(=O)n1O` [Compound 34] the value was 26.4 nM; for `O=c1[nH]c2cccc(Br)c2c(=O)n1O` [Compound 35], 19.6 nM.
For `O=c1[nH]c2c(F)cccc2c(=O)n1O` [Compound 36] the value was 42 nM; for `O=c1[nH]c2cc(F)ccc2c(=O)n1O` [Compound 37], 171 nM; for `O=c1[nH]c2ccc(F)cc2c(=O)n1O` [Compound 38], 216 nM.
As to `O=c1[nH]c2cccc(F)c2c(=O)n1O` [Compound 39], the IC50 was determined as 54.4 nM.
For `O=c1[nH]c2c(S(=O)(=O)c3ccccc3)cc(F)cc2c(=O)n1O` [Compound 40] the value was 15.6 nM.
For `O=c1[nH]c2c(S(=O)(=O)c3cccc(C(F)(F)F)c3)cccc2c(=O)n1O` [Compound 41] the value was 13.3 nM.
For `COc1cccc(S(=O)(=O)c2cccc3c(=O)n(O)c(=O)[nH]c23)c1` [Compound 42] the value was 16.5 nM.
In the case of `O=c1[nH]c2c(S(=O)(=O)c3ccccc3)ccc(Cl)c2c(=O)n1O` [Compound 43], the IC50 turned out to be 9.9 nM.
For `Cc1cccc(S(=O)(=O)c2cc(Cl)cc3c(=O)n(O)c(=O)[nH]c23)c1` [Compound 44] the value was 10.9 nM; for `O=c1[nH]c2c(S(=O)(=O)c3ccc(Br)cc3)cccc2c(=O)n1O` [Compound 45], 14 nM; for `O=c1[nH]c2c(S(=O)(=O)c3cccc(Br)c3)cccc2c(=O)n1O` [Compound 46], 12.9 nM.
For `O=c1[nH]c2c(S(=O)(=O)c3cccc(O)c3)cccc2c(=O)n1O` [Compound 47] the value was 15.7 nM; for `Cc1cccc(S(=O)(=O)c2ccc(Cl)c3c(=O)n(O)c(=O)[nH]c23)c1` [Compound 48, 5-chloro-3-hydroxy-8-(m-tolylsulfonyl)quinazoline-2,4(1H,3H)-dione], 9.3 nM; for `Nc1cccc(S(=O)(=O)c2cccc3c(=O)n(O)c(=O)[nH]c23)c1` [Compound 49], 35.4 nM.
For `Cc1cc(C)cc(S(=O)(=O)c2cccc3c(=O)n(O)c(=O)[nH]c23)c1` [Compound 50] the value was 11.6 nM; for `Cc1cccc(S(=O)(=O)c2c(F)ccc3c(=O)n(O)c(=O)[nH]c23)c1` [Compound 51], 19.2 nM.
On to `Cc1cccc(S(=O)(=O)c2c(Cl)ccc3c(=O)n(O)c(=O)[nH]c23)c1` [Compound 52], for which the IC50 is 139 nM.
As to `Cc1cccc(S(=O)(=O)c2cc(F)cc3c(=O)n(O)c(=O)[nH]c23)c1` [Compound 53], the IC50 stood at 13.7 nM.
For `O=c1[nH]c2c(S(=O)(=O)c3cc(Cl)cc(Cl)c3)cccc2c(=O)n1O` [Compound 54] the value was 18.1 nM; for `CC(=O)Nc1cccc(S(=O)(=O)c2cccc3c(=O)n(O)c(=O)[nH]c23)c1` [Compound 55], 16.5 nM; for `N#Cc1cccc(S(=O)(=O)c2cccc3c(=O)n(O)c(=O)[nH]c23)c1` [Compound 56], 14.8 nM.
For `O=c1[nH]c2c(S(=O)(=O)c3cc(F)cc(F)c3)cccc2c(=O)n1O` [Compound 57] the value was 12.8 nM.
For `COC(=O)Nc1cccc(S(=O)(=O)c2cccc3c(=O)n(O)c(=O)[nH]c23)c1` [Compound 58] the value was 12.8 nM; for `CNC(=O)Nc1cccc(S(=O)(=O)c2cccc3c(=O)n(O)c(=O)[nH]c23)c1` [Compound 59], 14.1 nM; for `O=c1[nH]c2c(S(=O)(=O)c3cccc(Nc4ncccn4)c3)cccc2c(=O)n1O` [Compound 60], 16 nM.
As for `O=c1[nH]c2c(S(=O)(=O)c3cc(Br)cc(Br)c3)cccc2c(=O)n1O` [Compound 61], the concentration for half-maximal inhibition (IC50) was 16.6 nM.
For `O=c1[nH]c2c(S(=O)(=O)c3cccc(Nc4ccccn4)c3)cccc2c(=O)n1O` [Compound 62] the value was 28.9 nM; for `NC(=O)Nc1cccc(S(=O)(=O)c2cccc3c(=O)n(O)c(=O)[nH]c23)c1` [Compound 63], 16.9 nM; for `CN(C)c1cccc(S(=O)(=O)c2cccc3c(=O)n(O)c(=O)[nH]c23)c1` [Compound 64], 14.9 nM.
For `COc1cc(OC)cc(S(=O)(=O)c2cccc3c(=O)n(O)c(=O)[nH]c23)c1` [Compound 65] the value was 17 nM.
For `O=c1[nH]c2c(S(=O)(=O)c3cc(O)cc(O)c3)cccc2c(=O)n1O` [Compound 66] the value was 9.3 nM; for `Cc1cccc(S(=O)(=O)c2ccc(F)c3c(=O)n(O)c(=O)[nH]c23)c1` [Compound 67], 17.8 nM; for `O=c1[nH]c2c(S(=O)(=O)c3ccccc3)c(F)ccc2c(=O)n1O` [Compound 68], 94.4 nM.
Take `O=c1[nH]c2c(S(=O)(=O)c3cccc(F)c3)cccc2c(=O)n1O` [Compound 69]: the 50% inhibitory concentration (IC50) was determined as 10 nM.
For `O=c1[nH]c2c(S(=O)(=O)c3cccc(F)c3)ccc(Cl)c2c(=O)n1O` [Compound 70] the value was 9.8 nM.
`O=c1[nH]c2c(S(=O)(=O)c3cc(F)cc(F)c3)ccc(Cl)c2c(=O)n1O` [Compound 71]: the IC50 worked out at 6.7 nM.
With `O=c1[nH]c2c(S(=O)(=O)c3ccc4[nH]cnc4c3)cccc2c(=O)n1O` [Compound 72], the IC50 is 5.6 nM.
For `CC(=O)Nc1cc(NC(C)=O)cc(S(=O)(=O)c2cccc3c(=O)n(O)c(=O)[nH]c23)c1` [Compound 73] the value was 7.6 nM; for `Nc1cc(N)cc(S(=O)(=O)c2cccc3c(=O)n(O)c(=O)[nH]c23)c1` [Compound 74], 8.5 nM.
For `O=c1[nH]c2c(S(=O)(=O)c3cccs3)cccc2c(=O)n1O` [Compound 75] the value was 11.6 nM.
`Cc1cc(Cl)cc(S(=O)(=O)c2ccc(Cl)c3c(=O)n(O)c(=O)[nH]c23)c1` [Compound 76]: the IC50 was determined as 9.4 nM.
For `Cc1cc(F)cc(S(=O)(=O)c2ccc(Cl)c3c(=O)n(O)c(=O)[nH]c23)c1` [Compound 77] the value was 8.5 nM; for `COc1ccc(S(=O)(=O)c2ccccc2)c2[nH]c(=O)n(O)c(=O)c12` [Compound 78], 6.6 nM.
For `O=c1[nH]c2c(S(=O)(=O)c3cccs3)ccc(Cl)c2c(=O)n1O` [Compound 79] the value was 16.6 nM; for `COc1ccc(S(=O)(=O)c2cccc(C)c2)c2[nH]c(=O)n(O)c(=O)c12` [Compound 80], 9.4 nM; for `CN(C)c1cc(N(C)C)cc(S(=O)(=O)c2cccc3c(=O)n(O)c(=O)[nH]c23)c1` [Compound 81], 18.4 nM.
